“Also recorded” adds a separate entry of the source.
How the values were obtained:
[1] = target: T1, bovine albumin (Bos taurus, UniProt P02769); test: Native mass spectrometry of BSA reactivity; type: binding; conditions: BSA 1 µM, compound 5 µM and 20 µM, pH 7.5, 30 minutes
T1 construct: Bovine serum albumin (BSA, Sigma Aldrich, A7030); purchased Sigma Aldrich A7030; host or cells: bovine serum
Procedure: Protein samples were buffer-exchanged into 200 mM ammonium acetate (pH 7.5) through dialysis prior to native MS analyses. These samples were directly introduced into the mass spectrometer using gold-coated capillary needles prepared in-house.[63] Data were collected on a Q Exactive UHMR hybrid quadrupole-Orbitrap mass spectrometer (Thermo Fisher) with positive polarity. The instrument parameters used for MS spectra collection were the following: capillary voltage, 1.2 kV; scan range from 1000 to 20,000 m/z; HCD collision energy, 0–100 V; source fragmentation, 0 V; in-source trapping, 0 V. The ion transfer optics was set as follows: injection flatapole, 5 V; interflatapole lens, 4 V; bent flatapole, 2 V; transfer multipole, 0 V. The resolution of the instrument was 17,500 at m/z = 200 (transient time of 64 ms), the nitrogen pressure in the HCD cell was maintained at approximately 4 × 10^–10 mbar, and the source temperature was kept at 100 °C. The noise level was set at 3 rather than the default value of 4.64. Calibration of the instruments was performed using 10 mg/mL solution of cesium iodide in water. Data were analyzed using Xcalibur 3.0 (Thermo Scientific), NaViA,[64] and UniDec software packages.[65]

[2] = target: T2, NOX2 (Homo sapiens, UniProt P04839); test: Human NOX2 isolated membranes, cytochrome c assay; type: biochemical; design: NOX2 was expressed as native protein in X-CGD PLB-985 cells transduced with the RD114 pseudotyped MFGS-NOX2 vector; expressed in transfected cells; host or cells: X-CGD PLB-985 cells transduced with MFGS-NOX2; isolated membranes; Cytosolic proteins made in E. coli; conditions: membrane-embedded NOX2; n = 1; read-out: IC50 NOX2 measured with the cytochrome c assay
Procedure: The strong activity of NOX2 enabled the use of the peroxide-independent MCLA and cytochrome c assays that probe superoxide formation. IC50 determinations were performed as described, with the same aforementioned modifications for covalent inhibition. Briefly, 20 μg of NOX2-p22^phox membranes was added to a reaction mix with a 65 mM sodium phosphate buffer (pH 7.0), 0.5 μM FAD, 130 μM LiDS, 160 nM p67^phox, p47^phox, Rac1 Q61L, and 1 μM MCLA or 200 μM bovine cytochrome c. The estimated final protein concentration based on the heme’s absorbance was 60 nM. Compounds were incubated for 1 h at 25 °C, at varying concentrations. The reaction started by adding 240 μM NADPH, and measurements were taken by using a GloMax plate reader (Promega; MCLA) or a Cary 100 UV–vis spectrophotometer (Varian; cytochrome c).

[3] = target: T3, human MAOB (Homo sapiens, UniProt P27338); test: Spectrophotometric monitoring of MAOB flavin covalent modification; type: binding
T3 construct: made in house; host or cells: Pichia pastoris
T3 sequence (P27338 1-520): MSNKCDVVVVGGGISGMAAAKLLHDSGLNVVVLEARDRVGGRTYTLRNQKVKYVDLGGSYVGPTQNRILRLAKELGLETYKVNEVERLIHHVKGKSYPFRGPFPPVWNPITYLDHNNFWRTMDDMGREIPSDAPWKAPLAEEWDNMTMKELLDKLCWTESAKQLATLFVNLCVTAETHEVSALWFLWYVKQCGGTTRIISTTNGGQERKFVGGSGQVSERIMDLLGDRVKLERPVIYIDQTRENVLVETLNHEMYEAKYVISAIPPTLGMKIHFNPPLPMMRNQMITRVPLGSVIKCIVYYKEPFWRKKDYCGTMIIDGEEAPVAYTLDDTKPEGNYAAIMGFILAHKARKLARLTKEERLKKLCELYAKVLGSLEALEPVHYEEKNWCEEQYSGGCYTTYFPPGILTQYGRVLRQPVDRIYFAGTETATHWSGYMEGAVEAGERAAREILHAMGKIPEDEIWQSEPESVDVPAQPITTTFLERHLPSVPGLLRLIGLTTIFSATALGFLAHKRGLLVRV
Procedure: IC50 values on human MAOA and human MAOB were determined using the Amplex Red/horseradish peroxidase coupled assay. […] Measurements were performed using a ClarioStar plate reader (excitation 572 nm and emission 583 nm) (BMG Labtech). IC50 values were obtained by fitting the percentage of inhibition versus log(inhibitor concentration) using GraphPad software 7.0. The covalent modification of the flavin upon the reaction with the propargylamine-containing inhibitors was monitored spectrophotometrically using a diode array UV/visible spectrophotometer (Agilent Technologies). […] The cofactor covalent modification was monitored over time following the shift of the enzyme-bound flavin (peaks at 370 and 456 nm) to 410 nm (ε410 = 23,500 M^–1 cm^–1) (Figure S10).

[4] = target: T2, NOX2; test: NOX2 inhibition upon preactivation with cytosolic partners, washout, cytochrome c reduction; type: biochemical; design: NOX2 was expressed as native protein in X-CGD PLB-985 cells transduced with the RD114 pseudotyped MFGS-NOX2 vector; expressed in transfected cells; host or cells: X-CGD PLB-985 cells transduced with MFGS-NOX2; isolated membranes; Cytosolic proteins made in E. coli; conditions: 1 mM compound, 60 min, with or without p47phox/p67phox/Rac1, washout, fresh activators
Procedure: More in detail, two different mixtures were prepared simultaneously: a “nonpreactivated NOX2” mixture in the absence of cytosolic partners and a “preactivated NOX2” mixture in the presence of cytosolic partners. NOX2-containing membranes (3.9 mg/mL) were added to a sodium phosphate buffer (65 mM, pH 7.0), 50 μM FAD, and 130 μM LiDS, in the presence or absence of 160 nM p67^phox, p47^phox, and Rac1 Q61L in a final volume of 20 μL. Both mixes were incubated with DMSO (vehicle) or 1 mM of the tested compound for 60 min at 25 °C. The mixtures were then centrifuged (20,000g for 10 min) at 4 °C to gently remove the excess of the inhibitor and, if present, of the activators. The supernatants were discarded to eliminate the excess of the nonbound compound, and the pellets were resuspended in the same volume of the fresh buffer. Subsequently, the resuspended pellets were loaded into a spectrophotometric cuvette at a final concentration of 0.39 mg/mL and incubated with fresh cytosolic activators (160 nM), LiDS (130 μM), and cytochrome c (200 μM) for 10 min at 25 °C. […] The reaction was then initiated with 240 μM NADPH and monitored at 550 nm with a Cary 100 UV–vis spectrophotometer (Varian).

T1 sequence (P02769 25-607): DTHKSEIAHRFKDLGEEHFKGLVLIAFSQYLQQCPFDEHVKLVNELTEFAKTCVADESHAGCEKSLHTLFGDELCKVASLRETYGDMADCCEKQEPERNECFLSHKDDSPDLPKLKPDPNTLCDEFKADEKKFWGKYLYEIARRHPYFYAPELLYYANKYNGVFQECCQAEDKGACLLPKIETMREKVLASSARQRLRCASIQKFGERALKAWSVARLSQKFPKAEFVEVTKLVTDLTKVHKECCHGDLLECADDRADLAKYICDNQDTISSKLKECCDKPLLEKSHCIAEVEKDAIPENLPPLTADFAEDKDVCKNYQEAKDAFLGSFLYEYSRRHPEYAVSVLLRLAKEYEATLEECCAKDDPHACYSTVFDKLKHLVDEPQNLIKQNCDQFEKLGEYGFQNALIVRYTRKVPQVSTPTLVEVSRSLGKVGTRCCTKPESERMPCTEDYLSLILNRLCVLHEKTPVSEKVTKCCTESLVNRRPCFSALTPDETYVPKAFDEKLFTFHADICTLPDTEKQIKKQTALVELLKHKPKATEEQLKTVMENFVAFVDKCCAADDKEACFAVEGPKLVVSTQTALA

adduct formation with bovine serum albumin [1]: no adduct; also recorded: did not bind | IC50 [2]: 770 nM | MAOB cofactor modified at the final time point ([3]; after 30 min of incubation): 18.4 µM | calculated inhibited fraction of MAOB ([3]; after 30 min of incubation): 91.8% | retention of inhibitor by NOX2 after washout, resting vs activated state [4]: retained only by the activated
SMILES: C#CCN(C)Cc1ccc(Cn2nnc3c(Sc4nc5ccccc5o4)ncnc32)cc1 [Compound 9a, N-(4-((7-(Benzo[d]oxazol-2-ylthio)-3H-[1,2,3]triazolo[4,5-d]pyrimidin-3-yl)methyl)benzyl)-N-methylprop-2-yn-1-amine]
covalent flavin adduct with MAOB (absorbance shift to 410 nm) ([3]; 5-fold molar excess over 20 μM protein): formation of a covalent N-methyl-N-propargylamine-flavin adduct

From PMC11956017, “Design of Benzyl-triazolopyrimidine-Based NADPH Oxidase Inhibitors Leads to the Discovery of a Potent Dual Covalent NOX2/MAOB Inhibitor” (Journal of Medicinal Chemistry, 2025)
